Reference: patent US8192962B2, “Processes for detecting toxic substances” (Daikin Industries, Ltd., priority 2001, dated 2012)

Test system: Unknown protein yeast genes
Assay: DNA chip mRNA expression in yeast, unknown protein yeast genes (Table 1)
Type: cell-based, Saccharomyces cerevisiae S288C
Summary of the method: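 Ratios compare mRNA levels in stressed and control S. cerevisiae. Each toxicant was applied for two hours to log-phase cultures at 25° C. at a sub-lethal, growth-inhibiting level; fluorescent cDNA (Cy3- or Cy5-dUTP) was hybridized to a genome-wide yeast chip for over 12 h at 65° C.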

## Oc1cc(Cl)c(Cl)cc1Cl [(6), 2,4,5-trichlorophenol]
Yeast gene YKL086W, incubated two hours with chemical substance
  The level of expressed mRNA in the presence of chemical substance/The level of expressed mRNA in the absence of chemical substance: 1.0
Yeast gene YKL151C, incubated two hours with chemical substance
  The level of expressed mRNA in the presence of chemical substance/The level of expressed mRNA in the absence of chemical substance: 2.0
Yeast gene YKL153W, incubated two hours with chemical substance
  The level of expressed mRNA in the presence of chemical substance/The level of expressed mRNA in the absence of chemical substance: 2.9
Yeast gene YKL195W, incubated two hours with chemical substance
  The level of expressed mRNA in the presence of chemical substance/The level of expressed mRNA in the absence of chemical substance: 2.5
Yeast gene YKR018C
  The level of expressed mRNA in the presence of chemical substance/The level of expressed mRNA in the absence of chemical substance: 1.7
Yeast gene YKR049C
  The level of expressed mRNA in the presence of chemical substance/The level of expressed mRNA in the absence of chemical substance: 3.0
Yeast gene YKR091W, incubated two hours with chemical substance
  The level of expressed mRNA in the presence of chemical substance/The level of expressed mRNA in the absence of chemical substance: 1.0
Yeast gene YLR054C, incubated two hours with chemical substance
  The level of expressed mRNA in the presence of chemical substance/The level of expressed mRNA in the absence of chemical substance: 1.2
Yeast gene YLR149C, incubated two hours with chemical substance
  The level of expressed mRNA in the presence of chemical substance/The level of expressed mRNA in the absence of chemical substance: 1.4
Yeast gene YLR152C, incubated two hours with chemical substance
  The level of expressed mRNA in the presence of chemical substance/The level of expressed mRNA in the absence of chemical substance: 2.1
Yeast gene YLR194C, incubated two hours with chemical substance
  The level of expressed mRNA in the presence of chemical substance/The level of expressed mRNA in the absence of chemical substance: 0.9
Yeast gene YLR324W, incubated two hours with chemical substance
  The level of expressed mRNA in the presence of chemical substance/The level of expressed mRNA in the absence of chemical substance: 1.2
Yeast gene YLR328W
  The level of expressed mRNA in the presence of chemical substance/The level of expressed mRNA in the absence of chemical substance: 4.8
Yeast gene YLR350W, incubated two hours with chemical substance
  The level of expressed mRNA in the presence of chemical substance/The level of expressed mRNA in the absence of chemical substance: 1.6
Yeast gene YLR387C, incubated two hours with chemical substance
  The level of expressed mRNA in the presence of chemical substance/The level of expressed mRNA in the absence of chemical substance: 1.9
Yeast gene YLR460C
  The level of expressed mRNA in the presence of chemical substance/The level of expressed mRNA in the absence of chemical substance: 0.6
Yeast gene YML117W, incubated two hours with chemical substance
  The level of expressed mRNA in the presence of chemical substance/The level of expressed mRNA in the absence of chemical substance: 1.0
Yeast gene YMR009W, incubated two hours with chemical substance
  The level of expressed mRNA in the presence of chemical substance/The level of expressed mRNA in the absence of chemical substance: 1.2
Yeast gene YMR040W
  The level of expressed mRNA in the presence of chemical substance/The level of expressed mRNA in the absence of chemical substance: 2.8
Yeast gene YMR067C, incubated two hours with chemical substance
  The level of expressed mRNA in the presence of chemical substance/The level of expressed mRNA in the absence of chemical substance: 1.4
Yeast gene YMR090W
  The level of expressed mRNA in the presence of chemical substance/The level of expressed mRNA in the absence of chemical substance: 3.8
Yeast gene YMR095C, incubated two hours with chemical substance
  The level of expressed mRNA in the presence of chemical substance/The level of expressed mRNA in the absence of chemical substance: 0.7
Yeast gene YMR097C, incubated two hours with chemical substance
  The level of expressed mRNA in the presence of chemical substance/The level of expressed mRNA in the absence of chemical substance: 1.2
Yeast gene YMR102C, incubated two hours with chemical substance
  The level of expressed mRNA in the presence of chemical substance/The level of expressed mRNA in the absence of chemical substance: 6.3
Yeast gene YMR107W, incubated two hours with chemical substance
  The level of expressed mRNA in the presence of chemical substance/The level of expressed mRNA in the absence of chemical substance: 1.0
Yeast gene YMR180C, incubated two hours with chemical substance
  The level of expressed mRNA in the presence of chemical substance/The level of expressed mRNA in the absence of chemical substance: 2.4
Yeast gene YMR184W, incubated two hours with chemical substance
  The level of expressed mRNA in the presence of chemical substance/The level of expressed mRNA in the absence of chemical substance: 0.9
Yeast gene YMR191W, incubated two hours with chemical substance
  The level of expressed mRNA in the presence of chemical substance/The level of expressed mRNA in the absence of chemical substance: 1.0
Yeast gene YMR295C, incubated two hours with chemical substance
  The level of expressed mRNA in the presence of chemical substance/The level of expressed mRNA in the absence of chemical substance: 1.9
Yeast gene YMR316W, incubated two hours with chemical substance
  The level of expressed mRNA in the presence of chemical substance/The level of expressed mRNA in the absence of chemical substance: 0.7
Yeast gene YNL044W, incubated two hours with chemical substance
  The level of expressed mRNA in the presence of chemical substance/The level of expressed mRNA in the absence of chemical substance: 0.9
Yeast gene YNL074C, incubated two hours with chemical substance
  The level of expressed mRNA in the presence of chemical substance/The level of expressed mRNA in the absence of chemical substance: 1.7
Yeast gene YNL092W, incubated two hours with chemical substance
  The level of expressed mRNA in the presence of chemical substance/The level of expressed mRNA in the absence of chemical substance: 1.2
Yeast gene YNL115C, incubated two hours with chemical substance
  The level of expressed mRNA in the presence of chemical substance/The level of expressed mRNA in the absence of chemical substance: 9.1
Yeast gene YNL156C, incubated two hours with chemical substance
  The level of expressed mRNA in the presence of chemical substance/The level of expressed mRNA in the absence of chemical substance: 1.3
Yeast gene YNL234W, incubated two hours with chemical substance
  The level of expressed mRNA in the presence of chemical substance/The level of expressed mRNA in the absence of chemical substance: 1.3
Yeast gene YNL281W, incubated two hours with chemical substance
  The level of expressed mRNA in the presence of chemical substance/The level of expressed mRNA in the absence of chemical substance: 0.9
Yeast gene YNL305C, incubated two hours with chemical substance
  The level of expressed mRNA in the presence of chemical substance/The level of expressed mRNA in the absence of chemical substance: 1.1
Yeast gene YNR068C, incubated two hours with chemical substance
  The level of expressed mRNA in the presence of chemical substance/The level of expressed mRNA in the absence of chemical substance: 0.4
Yeast gene YOL032W, incubated two hours with chemical substance
  The level of expressed mRNA in the presence of chemical substance/The level of expressed mRNA in the absence of chemical substance: 2.1
Yeast gene YOL036W, incubated two hours with chemical substance
  The level of expressed mRNA in the presence of chemical substance/The level of expressed mRNA in the absence of chemical substance: 1.2
Yeast gene YOL047C, incubated two hours with chemical substance
  The level of expressed mRNA in the presence of chemical substance/The level of expressed mRNA in the absence of chemical substance: 1.5
Yeast gene YOL071W, incubated two hours with chemical substance
  The level of expressed mRNA in the presence of chemical substance/The level of expressed mRNA in the absence of chemical substance: 1.7
Yeast gene YOL082W, incubated two hours with chemical substance
  The level of expressed mRNA in the presence of chemical substance/The level of expressed mRNA in the absence of chemical substance: 1.8
Yeast gene YOL083W, incubated two hours with chemical substance
  The level of expressed mRNA in the presence of chemical substance/The level of expressed mRNA in the absence of chemical substance: 4.5
Yeast gene YOL117W, incubated two hours with chemical substance
  The level of expressed mRNA in the presence of chemical substance/The level of expressed mRNA in the absence of chemical substance: 2.0
Yeast gene YOL131W, incubated two hours with chemical substance
  The level of expressed mRNA in the presence of chemical substance/The level of expressed mRNA in the absence of chemical substance: 1.1
Yeast gene YOL150C
  The level of expressed mRNA in the presence of chemical substance/The level of expressed mRNA in the absence of chemical substance: 5.2
Yeast gene YOL162W, incubated two hours with chemical substance
  The level of expressed mRNA in the presence of chemical substance/The level of expressed mRNA in the absence of chemical substance: 1.2
Yeast gene YOR019W, incubated two hours with chemical substance
  The level of expressed mRNA in the presence of chemical substance/The level of expressed mRNA in the absence of chemical substance: 1.3
Yeast gene YOR197W, incubated two hours with chemical substance
  The level of expressed mRNA in the presence of chemical substance/The level of expressed mRNA in the absence of chemical substance: 1.3
Yeast gene YPL087W, incubated two hours with chemical substance
  The level of expressed mRNA in the presence of chemical substance/The level of expressed mRNA in the absence of chemical substance: 4.3
Yeast gene YPL196W, incubated two hours with chemical substance
  The level of expressed mRNA in the presence of chemical substance/The level of expressed mRNA in the absence of chemical substance: 2.0
Yeast gene YPL206C, incubated two hours with chemical substance
  The level of expressed mRNA in the presence of chemical substance/The level of expressed mRNA in the absence of chemical substance: 1.8
Yeast gene YPL222W, incubated two hours with chemical substance
  The level of expressed mRNA in the presence of chemical substance/The level of expressed mRNA in the absence of chemical substance: 2.2
Yeast gene YPR023C, incubated two hours with chemical substance
  The level of expressed mRNA in the presence of chemical substance/The level of expressed mRNA in the absence of chemical substance: 1.4
Yeast gene YPR151C, incubated two hours with chemical substance
  The level of expressed mRNA in the presence of chemical substance/The level of expressed mRNA in the absence of chemical substance: 1.6
